Experimental data taken from patent publication US20230167118A1, “DEGRADATION OF BRUTON'S TYROSINE KINASE (BTK) BY CONJUGATION OF BTK INIDBITORS WITH E3 LIGASE LIGAND AND METHODS OF USE” (BEIGENE, LTD., priority 2020, published 2023).

Tests used:
[1] = target: T1, BTK (Homo sapiens, UniProt Q06187); experiment: Cell Degradation: BTK degradation in TMD-8 cells, HTRF assay; type: cell-based; details: 6 h treatment, IC50 (DC50) of BTK degradation
T1 construct: High control=Cell group with added DMSO and without compound, indicating microplate readings without BTK degradation; endogenous in cells; host or cells: TMD-8 cells
T1 sequence (Q06187 whole entry): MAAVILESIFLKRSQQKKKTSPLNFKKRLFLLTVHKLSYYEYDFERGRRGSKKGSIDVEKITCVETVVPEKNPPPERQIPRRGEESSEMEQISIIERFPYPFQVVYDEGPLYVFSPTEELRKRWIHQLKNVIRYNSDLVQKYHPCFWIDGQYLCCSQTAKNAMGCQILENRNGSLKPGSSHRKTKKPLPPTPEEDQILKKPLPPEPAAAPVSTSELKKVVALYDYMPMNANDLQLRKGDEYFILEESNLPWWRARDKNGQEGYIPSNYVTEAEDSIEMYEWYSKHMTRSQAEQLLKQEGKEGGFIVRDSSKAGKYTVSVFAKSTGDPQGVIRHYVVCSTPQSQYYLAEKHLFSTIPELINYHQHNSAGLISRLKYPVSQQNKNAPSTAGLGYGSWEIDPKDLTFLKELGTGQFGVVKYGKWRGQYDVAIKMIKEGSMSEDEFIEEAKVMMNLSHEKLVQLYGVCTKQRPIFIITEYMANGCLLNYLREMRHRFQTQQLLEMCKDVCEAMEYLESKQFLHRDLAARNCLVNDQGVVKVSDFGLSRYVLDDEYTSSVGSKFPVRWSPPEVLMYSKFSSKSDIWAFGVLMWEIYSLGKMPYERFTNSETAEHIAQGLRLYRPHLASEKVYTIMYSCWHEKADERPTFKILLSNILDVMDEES
Procedure, shortened: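 BTK levels read by HTRF (665 vs 620 nm) in lysates of TMD-8 cells after 6 h compound exposure (eight doses, 6-fold steps, 0.2% DMSO). Percent degradation relative to controls; four-parameter curve fitting gave DC50, with Dmax the top degradation.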

[2] = tested on: HEK-293 cells; experiment: HEK-293 Cytotoxicity Assay (CellTiter-Glo); type: cell-based; details: Homo sapiens, HEK293, 72 h incubation, CellTiter-Glo luminescence
Procedure, shortened: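 Four-parameter fit of % inhibition gives IC50, from CellTiter-Glo luminescent viability read-out. Cells exposed for 72 h to an 8-point, 4-fold series at 0.2% DMSO.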

SMILES | DC50 [1] | IC50 [2]
Cc1nn(C2CCN(CC3CCN(c4ccc(N5CCC(=O)NC5=O)cc4)CC3)CC2)c(C)c1-c1cc2c(-c3ccc([C@@H](C)NC(=O)c4nc(C(C)(C)C)no4)c(CO)c3)ncnc2[nH]1 [Example 138, (R)-3-(tert-butyl)-N-(1-(4-(6-(1-(1-((1-(4-(2,4-dioxotetrahydropyrimidin-1(2H)-yl)phenyl)piperidin-4-yl)methyl)piperidin-4-yl)-3,5-dimethyl-1H-pyrazol-4-yl)-7H-pyrrolo[2,3-d]pyrimidin-4-yl)-2-(hydroxymethyl)phenyl)ethyl)-1,2,4-oxadiazole-5-carboxamide] | 0.29 nM | 1860 nM
Cc1nn(C2CCN(CC3CCN(c4ccc(N5CCC(=O)NC5=O)cc4)CC3)CC2)c(C)c1-c1cc2c(-c3cc(CO)c([C@@H](C)NC(=O)c4nc(C(C)(C)C)no4)cc3F)ncnc2[nH]1 [Example 139, (R)-3-(tert-butyl)-N-(1-(4-(6-(1-(1-((1-(4-(2,4-dioxotetrahydropyrimidin-1(2H)-yl)phenyl)piperidin-4-yl)methyl)piperidin-4-yl)-3,5-dimethyl-1H-pyrazol-4-yl)-7H-pyrrolo[2,3-d]pyrimidin-4-yl)-5-fluoro-2-(hydroxymethyl)phenyl)ethyl)-1,2,4-oxadiazole-5-carboxamide] | 0.5 nM | > 10000 nM
Cc1c([C@@H](C)NC(=O)c2noc(C(C)(C)C)n2)ccc(-c2ncnc3[nH]c(-c4ccc(N5CCN(CC6CCN(c7ccc(N8CCC(=O)NC8=O)cc7)CC6)CC5)nc4)cc23)c1F [Example 140, (R)-5-(tert-butyl)-N-(1-(4-(6-(6-(4-((1-(4-(2,4-dioxotetrahydropyrimidin-1(2H)-yl)phenyl)piperidin-4-yl)methyl)piperazin-1-yl)pyridin-3-yl)-7H-pyrrolo[2,3-d]pyrimidin-4-yl)-3-fluoro-2-methylphenyl)ethyl)-1,2,4-oxadiazole-3-carboxamide] | 1.24 nM | > 10000 nM
Cc1cc(N2CCC(CN3CCN(c4ccc(-c5cc6c(-c7ccc([C@@H](C)NC(=O)c8noc(C(C)(C)C)n8)c(C)c7F)ncnc6[nH]5)cn4)CC3)CC2)ccc1N1CCC(=O)NC1=O [Example 141, (R)-5-(tert-butyl)-N-(1-(4-(6-(6-(4-((1-(4-(2,4-dioxotetrahydropyrimidin-1(2H)-yl)-3-methylphenyl)piperidin-4-yl)methyl)piperazin-1-yl)pyridin-3-yl)-7H-pyrrolo[2,3-d]pyrimidin-4-yl)-3-fluoro-2-methylphenyl)ethyl)-1,2,4-oxadiazole-3-carboxamide] | 1.23 nM | > 10000 nM
Cc1cc(-c2ncnc3[nH]c(-c4ccc(N5CCN(CC6CCN(c7ccc(N8CCC(=O)NC8=O)cc7)CC6)CC5)nc4)c(F)c23)ccc1[C@@H](C)NC(=O)c1nc(C(C)(C)C)no1 [Example 142, (R)-3-(tert-butyl)-N-(1-(4-(6-(6-(4-((1-(4-(2,4-dioxotetrahydropyrimidin-1(2H)-yl)phenyl)piperidin-4-yl)methyl)piperazin-1-yl)pyridin-3-yl)-5-fluoro-7H-pyrrolo[2,3-d]pyrimidin-4-yl)-2-methylphenyl)ethyl)-1,2,4-oxadiazole-5-carboxamide] | 2.99 nM | > 10000 nM
Cc1cc(-c2ncnc3[nH]c(-c4ccc(N5CCN(CC6CCN(c7ccc(C8CCC(=O)NC8=O)cc7)C6)CC5)cc4)cc23)ccc1[C@@H](C)NC(=O)c1nc(C(C)(C)C)no1 (stereo partly drawn) [Example 143, 3-(tert-butyl)-N-((1R)-1-(4-(6-(4-(4-((1-(4-(2,6-dioxopiperidin-3-yl)phenyl)pyrrolidin-3-yl)methyl)piperazin-1-yl)phenyl)-7H-pyrrolo[2,3-d]pyrimidin-4-yl)-2-methylphenyl)ethyl)-1,2,4-oxadiazole-5-carboxamide] | 8.42 nM | > 10000 nM
C[C@@H](NC(=O)c1noc(C(C)(C)C)n1)c1ccc(-c2ncnc3[nH]c(-c4ccc(N5CCN(CC6CCN(c7ccc(N8CCC(=O)NC8=O)cc7)CC6)CC5)nc4)cc23)cc1CO [Example 144, (R)-5-(tert-butyl)-N-(1-(4-(6-(6-(4-((1-(4-(2,4-dioxotetrahydropyrimidin-1(2H)-yl)phenyl)piperidin-4-yl)methyl)piperazin-1-yl)pyridin-3-yl)-7H-pyrrolo[2,3-d]pyrimidin-4-yl)-2-(hydroxymethyl)phenyl)ethyl)-1,2,4-oxadiazole-3-carboxamide] | 0.26 nM | > 10000 nM

Further lines, with some results ahead:

DC50 [1] | SMILES | IC50 [2]
0.27 nM | Cc1cc(N2CCC(CN3CCN(c4ccc(-c5cc6c(-c7ccc([C@@H](C)NC(=O)c8noc(C(C)(C)C)n8)c(CO)c7)ncnc6[nH]5)cn4)CC3)CC2)ccc1N1CCC(=O)NC1=O [Example 145, (R)-5-(tert-butyl)-N-(1-(4-(6-(6-(4-((1-(4-(2,4-dioxotetrahydropyrimidin-1(2H)-yl)-3-methylphenyl)piperidin-4-yl)methyl)piperazin-1-yl)pyridin-3-yl)-7H-pyrrolo[2,3-d]pyrimidin-4-yl)-2-(hydroxymethyl)phenyl)ethyl)-1,2,4-oxadiazole-3-carboxamide] | > 10000 nM
> 2000 nM | Cc1cc(-c2ncnc3[nH]c(-c4ccc(N5CCN(CC6CCN(c7ccc(N8CCC(=O)N(C)C8=O)cc7)CC6)CC5)nc4)cc23)ccc1[C@@H](C)NC(=O)c1nc(C(C)(C)C)no1 [Example 146, (R)-3-(tert-butyl)-N-(1-(2-methyl-4-(6-(6-(4-((1-(4-(3-methyl-2,4-dioxotetrahydropyrimidin-1(2H)-yl)phenyl)piperidin-4-yl)methyl)piperazin-1-yl)pyridin-3-yl)-7H-pyrrolo[2,3-d]pyrimidin-4-yl)phenyl)ethyl)-1,2,4-oxadiazole-5-carboxamide] | > 10000 nM
52.7 nM | Cc1cc(-c2ncnc3[nH]c(-c4ccc(N5CCN(CC6CCN(c7ccc(N8CCC(=O)NC8=O)cc7)CC6)CC5)cn4)cc23)ccc1[C@H](C)NC(=O)c1nc(C(C)(C)C)no1 [Example 147, (S)-3-(tert-butyl)-N-(1-(4-(6-(5-(4-((1-(4-(2,4-dioxotetrahydropyrimidin-1(2H)-yl)phenyl)piperidin-4-yl)methyl)piperazin-1-yl)pyridin-2-yl)-7H-pyrrolo[2,3-d]pyrimidin-4-yl)-2-methylphenyl)ethyl)-1,2,4-oxadiazole-5-carboxamide] | > 10000 nM
134 nM | Cc1cc(-c2ncnc3[nH]c(-c4ccc(N5CCN(CC6CCN(c7ccc(N8CCC(=O)NC8=O)cc7)CC6)CC5)nc4)cc23)ccc1[C@H](C)NC(=O)c1nc(C(C)(C)C)no1 [Example 148, (S)-3-(tert-butyl)-N-(1-(4-(6-(6-(4-((1-(4-(2,4-dioxotetrahydropyrimidin-1(2H)-yl)phenyl)piperidin-4-yl)methyl)piperazin-1-yl)pyridin-3-yl)-7H-pyrrolo[2,3-d]pyrimidin-4-yl)-2-methylphenyl)ethyl)-1,2,4-oxadiazole-5-carboxamide] | 278 nM
0.27 nM | Cc1nn(C2CCN(CC3CCN(c4ccc(N5CCC(=O)NC5=O)cc4)CC3)CC2)c(C)c1-c1cc2c(-c3cc(CO)c([C@@H](C)NC(=O)c4noc(C(C)(C)C)n4)cc3F)ncnc2[nH]1 [Example 149, (R)-5-(tert-butyl)-N-(1-(4-(6-(1-(1-((1-(4-(2,4-dioxotetrahydropyrimidin-1(2H)-yl)phenyl)piperidin-4-yl)methyl)piperidin-4-yl)-3,5-dimethyl-1H-pyrazol-4-yl)-7H-pyrrolo[2,3-d]pyrimidin-4-yl)-5-fluoro-2-(hydroxymethyl)phenyl)ethyl)-1,2,4-oxadiazole-3-carboxamide] | > 10000 nM
